“Also recorded” adds a separate entry of the source. Values belong to the compound of their own block, whether it stands above or below them.
Columns and labels:
[1] = biological target: T1, PAR4 (Homo sapiens, UniProt Q96RI0); experiment: PAC-1 binding assay; type: cell-based; conditions: for PAR4 activity (in words): PAR4-AP, PAC-1
T1 sequence (Q96RI0 18-385): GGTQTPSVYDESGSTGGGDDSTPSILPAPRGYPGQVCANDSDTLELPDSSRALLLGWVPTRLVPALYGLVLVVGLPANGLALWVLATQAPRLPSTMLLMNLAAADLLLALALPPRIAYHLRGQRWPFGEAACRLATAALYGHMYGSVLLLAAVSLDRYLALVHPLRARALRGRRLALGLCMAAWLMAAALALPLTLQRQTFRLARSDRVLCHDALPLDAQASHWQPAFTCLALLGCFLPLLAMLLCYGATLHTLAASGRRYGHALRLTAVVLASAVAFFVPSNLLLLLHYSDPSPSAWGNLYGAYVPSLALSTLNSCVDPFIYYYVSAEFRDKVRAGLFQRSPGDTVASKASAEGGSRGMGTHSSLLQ

[2] = In vivo rat PK; conditions: plasma, iv, 0.2 mg/kg
[3] = Predicted hepatic clearance in human microsomes; type: in vitro ADME
[4] = biological target: T1, PAR4; experiment: Progressive fold-shift inhibition assay/Schild analysis; type: cell-based
[5] = Predicted hepatic clearance in rat microsomes; type: in vitro ADME
[6] = system: PAR4; conditions: read-out: EC50 for PAR4; thrombin as agonist; background statement; cited from earlier work
[7] = biological target: T2, PAR4 (Homo sapiens, UniProt Q96RI0); conditions: literature antagonists; cited from earlier work
T2 sequence (Q96RI0 48-385): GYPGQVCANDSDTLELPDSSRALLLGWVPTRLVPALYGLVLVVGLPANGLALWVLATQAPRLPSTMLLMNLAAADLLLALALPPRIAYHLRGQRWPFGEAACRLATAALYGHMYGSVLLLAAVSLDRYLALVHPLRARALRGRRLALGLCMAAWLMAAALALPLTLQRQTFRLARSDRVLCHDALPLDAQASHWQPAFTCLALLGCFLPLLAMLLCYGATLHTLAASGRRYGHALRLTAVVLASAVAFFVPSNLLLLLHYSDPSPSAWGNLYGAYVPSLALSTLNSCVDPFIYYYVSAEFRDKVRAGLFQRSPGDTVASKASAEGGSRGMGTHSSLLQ

PAR4 activity (in words) [1]: devoid of PAR4 activity
Compound: COc1ccc(-c2c(CO)n(Cc3ccccc3)c3ccc(OC(F)(F)F)cc23)cn1 [9b]

PAR4 activity (in words) [1]: devoid of PAR4 activity
Compound: COc1ccc(-c2c(CO)n(C)c3ccc(C(F)(F)F)cc23)cn1 [9a]

PAR4 activity (in words) [1]: devoid of PAR4 activity
Compound: COc1ccc(-c2c(CO)n(Cc3cccc(Cl)c3)c3ccc(OC(F)(F)F)cc23)cn1 [9h]

IC50 [1]: 1490 nM
Compound: CSc1ncc(-c2c(CO)n(Cc3ccc(F)cc3F)c3ccc(OC(F)(F)F)cc23)cn1 [10c]

PAR4 activity (in words) [1]: devoid of PAR4 activity
Compound: COc1cccc(Cn2c(CO)c(-c3ccc(OC)nc3)c3cc(C(F)(F)F)ccc32)c1 [9d]

IC50 [1]: 930 nM
Compound: COc1ccc(-c2c(CO)n(Cc3ccccc3Cl)c3cc(OC(F)(F)F)ccc23)cn1 [11d]

PAR4 activity (in words) [1]: devoid of PAR4 activity
Compound: COc1ccc(-c2c(CO)n(Cc3cccc(F)c3)c3ccc(OC(F)(F)F)cc23)cn1 [9e]

clearance at 6 h [2]: 45 mL/min/kg
human CLHEP [3]: 1.1 mL/min/kg
rat CLHEP [5]: 36.1 mL/min/kg
Compound: COc1nn2cc(-c3c(CO)n(Cc4ccccc4Cl)c4ccc(OC(F)(F)F)cc34)nc2s1 [10h]
mode of PAR4 inhibition [4]: complex mode of PAR4 inhibition; also recorded: mixed competitive/noncompetitive mechanism of action

Compound: Thrombin
EC50 [6]: ~5 nM

PAR4 activity (in words) [1]: inactive
Compound: OCc1c(-c2cncnc2)c2cc(OC(F)(F)F)ccc2n1Cc1ccc(F)cc1F [10b]

Compound: CCOC(=O)c1ccc(-c2nn(Cc3ccccc3)c3ccccc23)cc1 [compound 1]
activity upon γ-thrombin activation (in words) [7]: lack of activity

PAR4 activity (in words) [1]: devoid of PAR4 activity
Compound: COc1ccc(-c2c(CO)n(Cc3ccccc3F)c3ccc(OC(F)(F)F)cc23)cn1 [9c]

Reference: PMC5775816 (Journal of medicinal chemistry, 2016)
